Data taken from patent US20260285850A1, “SUBSTITUTED OXAZOLIDINONES AND IMIDAZOLINONES AS HERBICIDES” (FMC CORPORATION, priority 2023, published 2026).

Legend:
Format in all cases: in vivo
[1] = tested on: barnyardgrass (Echinochloa crus-galli); assay: Test A postemergence application, visual injury rating 0-100
Method in brief: (§1)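 Compound in a non-phytotoxic, surfactant-containing solvent is applied either as a directed soil spray before seedlings emerge or onto emerged plants 2-10 cm tall; pots hold a loam-sand blend. Plants grow 10 days under greenhouse conditions and are rated by eye against untreated controls (0 no effect, 100 complete control).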

[2] = tested on: horseweed (Erigeron canadensis); assay: as above
Method in brief: as §1

[3] = tested on: blackgrass (Alopecurus myosuroides); assay: as above
Method in brief: as §1

corn (Zea mays) [4] = assay: as above
Method in brief: as §1

[5] = tested on: ryegrass, Italian (italian ryegrass, Lolium multiflorum); assay: as above
Method in brief: as §1

[6] = tested on: palmer (palmer amaranth, palmer pigweed, Amaranthus palmeri); assay: as above
Method in brief: as §1

soybean (Glycine max) [7] = assay: as above
Method in brief: as §1

[8] = tested on: green foxtail (Setaria viridis); assay: as above
Method in brief: as §1

[9] = tested on: wheat (Triticum aestivum); assay: as above
Method in brief: as §1

[10] = tested on: oat, wild (wild oat, Avena fatua); assay: as above
Method in brief: as §1

[11] = tested on: ragweed (common ragweed, Ambrosia artemisiifolia); assay: as above
Method in brief: as §1

kochia (Bassia scoparia) [12] = assay: as above
Method in brief: as §1

[13] = tested on: galium (catchweed bedstraw, Galium aparine); assay: as above
Method in brief: as §1

[14] = tested on: sedge, umbrella (small-flower umbrella sedge, Cyperus difformis); assay: Test B flooded paddy test, visual plant response rating 0-100; settings: 250 g ai/ha, Flood, applied to paddy water, evaluated after 13 days
Method in brief: (§2)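 Greenhouse, 13 d. Seedlings at 2-leaf stage, pots flooded to 3 cm, compound delivered into floodwater, water level held constant. Evaluated visually relative to controls.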

rice (Oryza sativa) = assay: as above; settings: 250 g ai/ha, Flood, applied to paddy water, evaluated after 13 days
Method in brief: as §2

[15] = tested on: ducksalad (Heteranthera limosa); assay: as above; settings: 250 g ai/ha, Flood, applied to paddy water, evaluated after 13 days
Method in brief: as §2

[16] = tested on: barnyardgrass (Echinochloa crusgalli); assay: as above; settings: 250 g ai/ha, Flood, applied to paddy water, evaluated after 13 days
Method in brief: as §2

[17] = tested on: barnyardgrass (Echinochloa crus-galli); assay: Test A preemergence soil spray, visual injury rating 0-100; settings: 10 days
Method in brief: as §1

[18] = tested on: blackgrass (Alopecurus myosuroides); assay: as above; settings: 10 days
Method in brief: as §1

corn (Zea mays) [19] = assay: as above; settings: 10 days
Method in brief: as §1

[20] = tested on: ryegrass, Italian (italian ryegrass, Lolium multiflorum); assay: as above; settings: 10 days
Method in brief: as §1

[21] = tested on: palmer (palmer amaranth, palmer pigweed, Amaranthus palmeri); assay: as above; settings: 10 days
Method in brief: as §1

soybean (Glycine max) [22] = assay: as above; settings: 10 days
Method in brief: as §1

[23] = tested on: green foxtail (Setaria viridis); assay: as above; settings: 10 days
Method in brief: as §1

[24] = tested on: wheat (Triticum aestivum); assay: as above; settings: 10 days
Method in brief: as §1

[25] = tested on: oat, wild (wild oat, Avena fatua); assay: as above; settings: 10 days
Method in brief: as §1

[26] = tested on: ragweed (common ragweed, Ambrosia artemisiifolia); assay: as above; settings: 10 days
Method in brief: as §1

kochia (Bassia scoparia) [27] = assay: as above; settings: 10 days
Method in brief: as §1

[28] = 62 g ai/ha, postemergence, 10 days, 0 = no effect, 100 = complete control
[29] = Postemergence, 16 g ai/ha, greenhouse 10 days, 0 no effect, 100 complete control
[30] = 62 g ai/ha, 0 = no effect, 100 = complete control

## CC1(C(=O)NC2CC=C(C(=O)NS(=O)(=O)c3ccccc3)C2)CN(c2cc(F)cc(F)c2)C(=O)O1 (racemic) [Compound 104]
[1]; [28]
  Barnyardgrass plant response rating (0-100): 100
[1]; [29]
  Barnyardgrass plant response rating (0 to 100 scale): 50
[2]; [28]
  Horseweed plant response rating (0-100): 30
[2]; [29]
  Horseweed plant response rating (0 to 100 scale): 0
[3]; [28]
  Blackgrass plant response rating (0-100): 70
[3]; [29]
  Blackgrass plant response rating (0 to 100 scale): 0
Corn (Zea mays) [4]; [28]
  Corn plant response rating (0-100): 90
Corn (Zea mays) [4]; [29]
  Corn plant response rating (0 to 100 scale): 0
[5]; [28]
  Ryegrass, Italian plant response rating (0-100): 70
[5]; [29]
  Ryegrass, Italian plant response rating (0 to 100 scale): 50
[6]; [28]
  Pigweed, Palmer plant response rating (0-100): 90
[6]; [29]
  Pigweed, Palmer plant response rating (0 to 100 scale): 80
Soybean (Glycine max) [7]; [28]
  Soybean plant response rating (0-100): 60
Soybean (Glycine max) [7]; [29]
  Soybean plant response rating (0 to 100 scale): 20
[8]; [28]
  Foxtail, Green plant response rating (0-100): 90
[8]; [29]
  Foxtail, Green plant response rating (0 to 100 scale): 40
[9]; [28]
  Wheat plant response rating (0-100): 90
[9]; [29]
  Wheat plant response rating (0 to 100 scale): 30
[10]; [28]
  Oat, Wild plant response rating (0-100): 30
[10]; [29]
  Oat, Wild plant response rating (0 to 100 scale): 0
[11]; [28]
  Ragweed plant response rating (0-100): 60
[11]; [29]
  Ragweed plant response rating (0 to 100 scale): 40
Kochia (Bassia scoparia) [12]; [28]
  Kochia plant response rating (0-100): 90
Kochia (Bassia scoparia) [12]; [29]
  Kochia plant response rating (0 to 100 scale): 30
[13]; [28]
  Galium plant response rating (0-100): 70
[13]; [29]
  Galium plant response rating (0 to 100 scale): 30
[14]
  Plant response rating, Sedge, Umbrella (0 to 100 scale, 0 is no effect and 100 is complete control): 0
Rice (Oryza sativa)
  Plant response rating, Rice (0 to 100 scale, 0 is no effect and 100 is complete control): 0
[15]
  Plant response rating, Ducksalad (0 to 100 scale, 0 is no effect and 100 is complete control): 0
[16]
  Plant response rating, Barnyardgrass (0 to 100 scale, 0 is no effect and 100 is complete control): 0
[17]; 16 g ai/ha, 0 to 100 scale
  Barnyardgrass plant response rating: 0
[17]; [30]
  Barnyardgrass plant response rating (0-100): 20
[18]; 16 g ai/ha, 0 to 100 scale
  Blackgrass plant response rating: 0
[18]; [30]
  Blackgrass plant response rating (0-100): 0
Corn (Zea mays) [19]; 16 g ai/ha, 0 to 100 scale
  Corn plant response rating: 0
Corn (Zea mays) [19]; [30]
  Corn plant response rating (0-100): 0
[20]; 16 g ai/ha, 0 to 100 scale
  Ryegrass, Italian plant response rating: 0
[20]; [30]
  Ryegrass, Italian plant response rating (0-100): 20
[21]; 16 g ai/ha, 0 to 100 scale
  Pigweed, Palmer plant response rating: 0
[21]; [30]
  Pigweed, Palmer plant response rating (0-100): 30
Soybean (Glycine max) [22]; 16 g ai/ha, 0 to 100 scale
  Soybean plant response rating: 0
Soybean (Glycine max) [22]; [30]
  Soybean plant response rating (0-100): 0
[23]; 16 g ai/ha, 0 to 100 scale
  Foxtail, Green plant response rating: 0
[23]; [30]
  Foxtail, Green plant response rating (0-100): 30
[24]; 16 g ai/ha, 0 to 100 scale
  Wheat plant response rating: 0
[24]; [30]
  Wheat plant response rating (0-100): 20
[25]; 16 g ai/ha, 0 to 100 scale
  Oat, Wild plant response rating: 0
[25]; [30]
  Oat, Wild plant response rating (0-100): 0
[26]; 16 g ai/ha, 0 to 100 scale
  Ragweed plant response rating: 20
[26]; [30]
  Ragweed plant response rating (0-100): 20
Kochia (Bassia scoparia) [27]; 16 g ai/ha, 0 to 100 scale
  Kochia plant response rating: 0
Kochia (Bassia scoparia) [27]; [30]
  Kochia plant response rating (0-100): 50
